According to article PMC10710507 (Nature Communications, 2023):
Square brackets hold non-standard residues; d marks the D form. Ends that are not written are not given here. Phe(4-CF3) = N[C@@H](Cc1ccc(C(F)(F)F)cc1)C(=O)O

Legend:
[1] = system: free fatty acid receptor 2, FFA2; conditions: cited from earlier work
Excerpt: Whether NT binds to the orthosteric binding pocket of the intermediate state or occupies different conformations in distinct pockets remains to be fully answered. […] Intermediate-state binding pockets have been attributed to a sequential activation mechanism of the free fatty acid receptor 2, FFA2, by the previously considered allosteric modulator, 4-CMTB[62]. 4-CMTB binds to the orthoste ...

[2] = system: NTS1; conditions: cited from earlier work
Excerpt: The ECL2 of many GPCRs forms a lid over the ligand-bound orthosteric binding pocket of the receptor via interaction with the N-terminal region or ECL3 of the receptor, which can increase the affinity of the ligand by slowing down its dissociation rate[35],[37]. Although such a formation has not been confirmed experimentally for NTS1, all structures published to date on the complex of NT with NTS1 show close contacts between the N-terminal region and the ECL2 of NTS1 (PDB: 4XEE, 6YVR, 4BUO)[21],[33],[34]. However, the structure of these parts of NTS1 in the apo-state or when complexed with smal ...

[3] = system: enNTS1; test: Ligand-observed 19F NMR / 19F STD, enNTS1 complex; type: binding, rat; conditions: 298 K, pH 7.4
[4] = system: enNTS1-R213; test: Ligand-observed 19F NMR / 19F STD, enNTS1-R213 complex; type: binding, rat; conditions: 298 K, pH 7.4
Description: The peptide-receptor complex was formed by addition of a 10-fold excess of peptide to receptor. The solution was incubated on ice for one hour, followed by buffer exchange to remove free peptide in 50 mM potassium phosphate pH 7.4, 100 mM NaCl, 0.05% DDM, 50 µM EDTA, 0.02% NaN3. 100 μM of freshly formed complexes were mixed with 10 μM free receptor to ensure excess receptor. The samples were adjusted to 10% D2O, 500 μM DSS and 20 μM TFA as lock nuclei, ^1H and ^19F references, respectively.
For NMR experiments in the presence of Gαiq, enNTS1-R213 was incubated on ice with 5-fold Y11tfmF-NT8-13 over receptor for 30 min and then 5-fold Gαiq over receptor with incubation for another 30 min. […]
^19F saturation transfer difference (STD) experiments were acquired using the STDDiff pulse sequence from the Bruker library. […] These were interleaved with equivalent off-resonance spectra, where the offset was set equidistant to the monitored and saturated peaks. The intensities of the monitored peak in the presence of on-resonance saturation were normalized against the spectra collected in the absence of saturation and subtracted from the intensities in the presence of the equidistant off-resonance spectra to account for off-resonance effects. […]

[5] = system: wt-rNTS1; test: G protein BRET assay, wt-rNTS1; type: cell-based, rat; conditions: HEK293T cells, n = 3
Description: (§1) 500,000 HEK293T cells were seeded per well in a 6-well plate in complete DMEM (10% FBS, 1% L-Glutamine, 1% penicillin-streptomycin). Cells were transfected the following day with a solution of Opti-mem and lipofectamine 2000 at a quantity of 1 µL/1 µg of DNA. For β-arrestin-2 recruitment assay cells were co-transfected with 250 ng of either pcDNA 3.1 zeo-HA-FLAG-wt-rNTS1-nLuc or pcDNA 3.1 zeo-HA-FLAG-rNTS1-R213L-nLuc and with 600 ng of pcDNA human β-arrestin-2-Venus. In G protein BRET assays, cells were co-transfected with 750 ng of pCSC-rNTS1-IRES-mCherry, pCSC-rNTS1-R213L-IRES-mCherry or pCSC-enNTS1-IRES-mCherry and with 250 ng of Gαi (for enNTS1) or Gq (for rNTS1 and rNTS1-R213L) BRET biosensor. […] The plate was then incubated at 37 °C for 10 min in a PHERAstar® FSX microplate reader (BMG LABTECH). Dual luminescence of 450/535 nm was then measured for 3 min before manually adding 10 µL of 10x ligand concentration or vehicle to respective wells before completing the time course measurement. The BRET ratio was calculated as Venus emission to nLuc emission. […] Concentration–response curves were calculated by first integrating the area under the BRET ratio over time plot using the Area Under the Curve function and then plotted against ligand concentration. […]

[6] = system: wt-rNTS1; test: β-arrestin-2 recruitment BRET assay, wt-rNTS1; type: cell-based, rat; conditions: HEK293T cells, β-arrestin-2-Venus, 37 °C, n = 3
Description: as §1

[7] = 19F NMR interaction with DDM micelles; type: physicochemical; conditions: 298 K, Supplementary Fig. 5b
Description: All NMR experiments were performed on a Bruker 700 MHz Avance IIIHD spectrometer running Topspin 3.2.7 and equipped with a ^1H/^13C/^15N triple-resonance TCI cryoprobe, where the proton channel was tuned to ^19F, ~658 MHz. The 1D spectra were collected in a pulse-acquire manner at 298 K, with the carrier frequency set at −65 ppm. 512 to 2048 scans were collected per spectrum with 16 K of data points and a spectral width of 49 ppm. 2680 scans were collected for the sample of Y11tfmF-NT8-13 in complex with enNTS1 in the presence of Gαiq. The spectrum on the complex of ^19F-labelled peptides and ^19F-labelled receptor were processed in Topspin vs3.4 using, respectively, 50 Hz and 10 Hz line broadening and zero filling prior to Fourier transformation. Spectral deconvolution was performed in MNova (version: 10.0.2-15465, Mestrelab Research).

[8] = system: enNTS1; test: Cell surface competition binding assay, enNTS1; set-up: species or system rat; conditions: HEK293F cells, competition with 5 nM Cy5-NT8-13, 1 h, room temperature, flow cytometry, n = 4
Description: 100,000 HEK293F cells (Invitrogen) stably expressing receptor and the cytosolic mCherry fluorophore were suspended in complete phenol red free DMEM (10% FBS, 1% L-Glutamine, 1% penicillin-streptomycin) and were added to the relevant ligand concentrations in the presence of 5 nM Cy5-NT8-13 for enNTS1 and wt-rNTS1 or 2 nM FAM-NT8-13 for rNTS1-R213L. Cells were then gently agitated on an orbital shaker in the dark for 1 h at room temperature for ligand binding to reach a state of equilibrium. The mean fluorescence intensity of bound FAM-NT8-13 and Cy5-NT8-13 was measured with a CytoflexS (Beckman-Coulter) flow cytometer using the 525/40 and 660/20 filter, respectively. Data was then analysed using the One site – Fit Ki function on GraphPad Prism (version: 9.3.1, Graphpad Software, San Diego, CA). The data for enNTS1 and wt-NTS1 are mean of four replicates (n = 4) and the assays with rNTS1-R213L are performed in triplicates (n = 3).
Supplementary Figure 3. Functional characterization of the NT peptides used in this study. The cell-surface binding of peptides to (a) wt-rNTS1 and enNTS1 (b) rNTS1-R213L. The competition binding curves are for NT8-13 (black circles) , Y11tfmF-NT8-13 (red triangles).
Cy5-labellled NT8-13 and FAM -labelled NT8-13 was used as a fluorescent competitor for investigating the binding. […]

[9] = target: T1, wt-rNTS1 (wild-type rat neurotensin receptor 1) on HEK293F cells (rat, UniProt P20789 1-424); test: flow cytometry on cells; cell surface competition: 100,000 HEK293F cells stably expressing receptor, unlabelled ligand varied against 5 nM Cy5-NT8-13, 1 h at room temperature, mCherry-positive single cells, One site - Fit Ki; conditions: one partner purified
T1 construct: also called wt-NTS1; source: HEK293F cells stably expressing receptor and cytosolic mCherry
T1 sequence (P20789 whole entry): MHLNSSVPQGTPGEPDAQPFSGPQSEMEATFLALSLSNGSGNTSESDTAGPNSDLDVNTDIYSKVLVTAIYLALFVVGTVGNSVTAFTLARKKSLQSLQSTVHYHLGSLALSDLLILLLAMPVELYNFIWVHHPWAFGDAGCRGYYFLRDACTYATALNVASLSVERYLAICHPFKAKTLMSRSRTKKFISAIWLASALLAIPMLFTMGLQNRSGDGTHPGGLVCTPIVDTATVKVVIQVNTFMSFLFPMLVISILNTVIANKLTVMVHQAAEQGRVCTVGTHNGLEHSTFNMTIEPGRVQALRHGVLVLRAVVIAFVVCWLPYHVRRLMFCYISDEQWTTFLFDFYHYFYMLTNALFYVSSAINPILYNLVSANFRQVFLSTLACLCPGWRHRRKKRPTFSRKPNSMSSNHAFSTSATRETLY

For CC(C)C(C(=O)Nc1nccs1)c1ccc(Cl)cc1 (centres unmarked) [4-CMTB], the “binding and signalling at FFA2” value [1] is listed as “binds to the orthosteric binding pocket of FFA2, where it primarily initiates downstream orthosteric signalling followed by diffusion into an allosteric pocket”.

For COc1cccc(OC)c1-c1cc(C(=O)N[C@@H](CC(C)C)C(=O)O)nn1-c1ccnc2cc(Cl)ccc12 [RTI-3a], the “pharmacological class at NTS1” value [2] is listed as “partial agonist”.

For COc1cccc(OC)c1-c1cc(C(=O)NC2(C(=O)O)C3CC4CC(C3)CC2C4)nn1-c1ccnc2cc(Cl)ccc12 (centres unmarked) [SR48692], the “pharmacological class at NTS1” value [2] is given as “inverse agonists”.

For COc1cccc(OC)c1-c1cc(C(=O)NC2(C(=O)O)C3CC4CC(C3)CC2C4)nn1-c1ccc(C(=O)N(C)CCCN(C)C)cc1C(C)C (centres unmarked) [SR142948A], the “pharmacological class at NTS1” value [2] is given as “inverse agonists”.

With “Y11tfmF-NT8-13: truncated version of 19F-NT (RRP[Phe(4-CF3)]IL)” the “exchange rate constant from S1 to S2, k12” value [3] was 1.23 s⁻¹, the “exchange rate constant from S2 to S1, k21” value [3] was 0.08 s⁻¹ and the “exchange rate constant k12 (S1 to S2)” value [4] was 0.14 s⁻¹. The “exchange rate constant k21 (S2 to S1)” value [4] was 0.26 s⁻¹.

With “Y11tfmF-NT: fluorinated analogue of NT, Tyr11 substituted with para-trifluoromethyl-phenylalanine (ELYENKPRRPFIL; para-trifluoromethyl-phenylalanine (tfmF) at position 11; pyroglutamate (pE) at position 1 as in NT)” the “activation of wt-rNTS1” value ([5]; BRET assays) was “can fully activate wt-rNTS1”, the “efficacy in G protein BRET assay” value ([5]; Gq BRET biosensor, 37 °C) was “equally efficacious” and the “efficacy in β-arrestin recruitment BRET assay” value [6] was “equally efficacious”. The “effect of DDM on 19F NMR signal of the peptide” value [7] was “not perturbed in the presence of DDM” and the “affinity for enNTS1 (effect of CF3 moiety)” value [8] was “unaffected”.

B1: Y11tfmF-NT (peptide)
peptide: ELYENKPRRPFIL
modifications: para-trifluoromethyl-phenylalanine (tfmF) at position 11; pyroglutamate (pE) at position 1 as in NT
notes: in this molecule Tyr11 is replaced by tfmF (see substitutions); numbers count on: the mature neurotensin peptide; The new residue is the unnatural amino acid para-trifluoromethyl-phenylalanine, written F in the substitution row; also called 19F-NT; fluorinated analogue of NT; source: synthetic peptide (Fmoc solid phase synthesis, reverse-phase HPLC)
In the case of B1, the “fold reduction of affinity against NT” value [9] is reported as 100 fold.
